These results are taken from US10925286B2, “Synergistic chalcone containing composition of a nematicide” (TELLURIS BIOTECH INDIA PRIVATE LIMITED, priority 2017, dated 2021).

Test [1] relates to M. incognita eggs. Kind of test: Egg hatching experiment, 96-well plate, 10 eggs per well, 16 days. It is filed as in vivo, Meloidogyne incognita. The text has this: (§1) Tomato plants were inoculated with M. incognita juveniles and maintained in a growth chamber. After at least two months, the M. incognita eggs were extracted from the roots for experiments. The procedure followed for extracting M. incognita eggs is explained below.
(§2) The root tissues were either chopped by hand using a surgical blade and a watch glass, or it was chopped up using a food processor. The chopped tissue was then placed in a bottle and washed with a 10% dilution of bleach. Under sterile conditions, the root solution was then poured through sieves (60 count sieve on top, 500 count sieve on the bottom). The crude egg collection was collected from the bottom of the 500 count sieve into 5 mL each of bleach and egg mixture in 15 mL Falcon tubes. 5 mL of 70% sucrose solution was then placed in each Falcon tube. A 1 mL layer of double distilled sterile water was then gently placed on top of the sucrose mixtures in each Falcon tube. The samples were then centrifuged for 5 minutes at 1200 rpm. The embryos that were suspended between the sucrose solution and the 1 mL water layer were collected in a total of 3 mL (top layer of 3 mL of the solution) from each Falcon tube into fresh 15 mL Falcon tubes. 10 mL of a 5% bleach solution was added and the eggs were vortexed for 10 minutes. The Falcon tubes were then centrifuged for 5 minutes at 2000 rpm. The supernatant was then removed, and the eggs were rinsed in 10 mL of sterile double distilled water and re-centrifuged for 5 minutes at 2000 rpm. This process was repeated two more times. After the last wash, 5 mL of supernatant was removed, while the remaining 5 mL of water was mixed with the eggs and placed into a 5 mL Petri dish. The eggs were then placed in an incubator at 25-27° C., and juvenile worms (J2 stage) hatched after about 10 days. The worms were kept in a 25-27° C. incubator for storage.
The bioassay is designed to test the ability of the mixture of peptides and chalcone to prevent egg hatching (% unhatched eggs). Each test was performed in a 96-well plate with 10 eggs per well. The eggs were incubated in each treatment for 16 days. Hatched vs unhatched eggs were determined by microscopic images.
(§3) As described earlier, equal number nematodes were incubated in various treatment solutions in a 96-well plate for 5 days and the potency of different combination of nematicides was tested by counting the number of nematodes dead or surviving on Day 5. Similarly, the effect of different combination of nematicide composition on hatching of nematode eggs was also counted.

Test [2] relates to J2 M. incognita. The test is described as follows: Bioassay for killing J2 juvenile nematodes (% mortality), 96-well plate, 5 days. It is filed as in vivo, Meloidogyne incognita. The following applies: for effectiveness in killing juvenile nematodes: peptide alone (0.8 mg/ml where stated), Day 5.
Description: as §1
as §2, with “The eggs were then placed in an incubator at 25-27° C., and juvenile worms (J2 stage) hatched after about 10 days. The worms were kept in a 25-27° C. incubator for storage.” left out
as §3

Test [3] concerns nematodes. The following applies: cited from earlier work; for effective concentration for nematicidal activity: peptide alone; for nematicidal activity: peptide individually, 1 mg/ml.

Turning to `O=C(/C=C/c1ccccc1)c1ccc(Cl)cc1Cl` [chalcone 17, (2E)-1-(2,4-Dichlorophenyl)-3-phenyl-2-propen-1-one], the “hatched eggs by Day 16” value in test [1] (chalcone alone, 10^−4-10^−5 M) was ~50%.
On to `CCOc1ccc(C(=O)/C=C/c2ccccc2)cc1` [chalcone 25, (2E)-1-(4-Ethoxyphenyl)-3-phenyl-2-propen-1-one], for which the “hatched eggs by Day 16” value in test [1] (chalcone alone, 10^−4-10^−5 M) was ~50%.
For “Peptide 2: 15 amino acids DLLRPVVIAPQFSRQ (99-113 amino acid stretch of CED-4 protein, SEQ ID NO. 2) (Caenorhabditis elegans)”, the “death of juvenile nematodes on Day 5” value in test [2] (peptide alone, 0.8 mg/ml) is reported as 60-80%. For the same compound, the “hatched eggs by Day 16” value in test [1] (peptide alone, 0.8 mg/ml) is “around 30%”. In addition, in test [3], the “effective concentration for nematicidal activity” value (“effective concentration” for short) is listed as “about 1 mg/ml” and the nematicidal activity is given as 100%.
As for “Peptide 3: 19 amino acids RQMLDRKLLLGNVPKQMTC (112-130 amino acid stretch of CED-4 protein, SEQ ID NO. 3) (Caenorhabditis elegans)”, the “effectiveness in killing juvenile nematodes” value in test [2] is given as “less effective”. In test [1] (peptide alone, 0.8 mg/ml), the “hatched eggs by Day 16” value is “around 10%”. Moreover, in test [3], the “effective concentration” value was “about 1 mg/ml” and the nematicidal activity is given as 100%.
As to “Peptide 12: 12 amino acids FPKFMQLHQKFY (529-540 amino acid stretch of CED-4 protein, SEQ ID NO. 4) (Caenorhabditis elegans)”, in test [2], the “effectiveness in killing juvenile nematodes” value is given as “highly effective”. Besides, in test [1] (peptide alone, 0.8 mg/ml), the “hatched eggs by Day 16” value was “around 20%”. Besides, in test [3], the “effective concentration” value is given as “about 1 mg/ml” and the nematicidal activity is 100%.
